SMILES strings stand for the structures. ≈ marks a conversion by molar mass, not a printed value.

Assay in all cases: MIC, standard broth micro-dilution assay
Format in all cases: cell-based

For experiment [1], the system named is Entercoccus faecalis 2041. The protocol:
(§1) The formula I compounds have in vitro and in vivo activity against Gram-positive pathogenic bacteria. The MIC's were determined using a standard broth micro-dilution assay.

In experiment [2] the test system is Entercoccus faecalis 276. The method, then: as §1
Experiment [3] has as its system Entercoccus gallinarum 245. The method, then: as §1

Consider `CNC(CC(C)C)C(=O)NC1C(=O)NC(CC(N)=O)C(=O)NC2C(=O)NC3C(=O)NC(C(=O)NC(C(=O)O)c4cc(O)cc(O)c4-c4cc3ccc4O)C(OC3CC(C)(N)C(O)C(C)O3)c3ccc(c(Cl)c3)Oc3cc2cc(c3OC2OC(CO)C(O)C(O)C2OC2CC(C)(NCCCCCCCCBr)C(O)C(C)O2)Oc2ccc(cc2Cl)C1O` (stereo not drawn) [Compound 198, 8-bromooctyl], for which the MIC in experiment [1] is at most 0.06 µg/mL; in experiment [2], 0.25 µg/mL (≈ 0.14 µM); in experiment [3], 1 µg/mL (≈ 0.561 µM).

In the case of `CNC(CC(C)C)C(=O)NC1C(=O)NC(CC(N)=O)C(=O)NC2C(=O)NC3C(=O)NC(C(=O)NC(C(=O)O)c4cc(O)cc(O)c4-c4cc3ccc4O)C(OC3CC(C)(N)C(O)C(C)O3)c3ccc(c(Cl)c3)Oc3cc2cc(c3OC2OC(CO)C(O)C(O)C2OC2CC(C)(NCc3ccc(OCCCCCCc4ccccc4)cc3)C(O)C(C)O2)Oc2ccc(cc2Cl)C1O` (stereo not drawn) [Compound 219, 4-[6-phenylhexyloxy]benzyl], the MIC in experiment [1], in experiment [2] and in experiment [3] was 2 µg/mL (≈ 1.08 µM) each time.

As to `CNC(CC(C)C)C(=O)NC1C(=O)NC(CC(N)=O)C(=O)NC2C(=O)NC3C(=O)NC(C(=O)NC(C(=O)O)c4cc(O)cc(O)c4-c4cc3ccc4O)C(OC3CC(C)(N)C(O)C(C)O3)c3ccc(c(Cl)c3)Oc3cc2cc(c3OC2OC(CO)C(O)C(O)C2OC2CC(C)(NCCCCCCCCOc3ccccc3)C(O)C(C)O2)Oc2ccc(cc2Cl)C1O` (stereo not drawn) [Compound 195, 8-phenoxyoctyl], the MIC was at most 0.06 µg/mL in experiment [1], 0.25 µg/mL (≈ 0.139 µM) in experiment [2] and 4 µg/mL (≈ 2.23 µM) in experiment [3].

For the molecule `CNC(CC(C)C)C(=O)NC1C(=O)NC(CC(N)=O)C(=O)NC2C(=O)NC3C(=O)NC(C(=O)NC(C(=O)O)c4cc(O)cc(O)c4-c4cc3ccc4O)C(OC3CC(C)(N)C(O)C(C)O3)c3ccc(c(Cl)c3)Oc3cc2cc(c3OC2OC(CO)C(O)C(O)C2OC2CC(C)(NCc3ccc(S(=O)(=O)N4CCCC4)cc3)C(O)C(C)O2)Oc2ccc(cc2Cl)C1O` (stereo not drawn) [Compound 174, 4-[1-pyrrolidinosulfonyl]benzyl], the minimal inhibitory concentration (MIC) in experiment [1] was at most 0.06 µg/mL; in experiment [2] it was at most 0.06 µg/mL; in experiment [3] it was 16 µg/mL (≈ 8.81 µM).

Consider `CNC(CC(C)C)C(=O)NC1C(=O)NC(CC(N)=O)C(=O)NC2C(=O)NC3C(=O)NC(C(=O)NC(C(=O)O)c4cc(O)cc(O)c4-c4cc3ccc4O)C(OC3CC(C)(N)C(O)C(C)O3)c3ccc(c(Cl)c3)Oc3cc2cc(c3OC2OC(CO)C(O)C(O)C2OC2CC(C)(NCc3ccc(-c4ccccc4)cc3)C(O)C(C)O2)Oc2ccc(cc2)C1O` (stereo not drawn) [Compound 185, 4-phenylbenzyl], for which the MIC result in experiment [1], in experiment [2] and in experiment [3] was “≤ .06 µg/mL” each time.

With `CNC(CC(C)C)C(=O)NC1C(=O)NC(CC(N)=O)C(=O)NC2C(=O)NC3C(=O)NC(C(=O)NC(C(=O)O)c4cc(O)cc(O)c4-c4cc3ccc4O)C(OC3CC(C)(N)C(O)C(C)O3)c3ccc(c(Cl)c3)Oc3cc2cc(c3OC2OC(CO)C(O)C(O)C2OC2CC(C)(NCc3ccc(-c4ccc(C#N)cc4)cc3)C(O)C(C)O2)Oc2ccc(cc2Cl)C1O` (stereo not drawn) [Compound 231, 4-[4-cyanophenyl]benzyl], the results for the MIC in experiment [1], in experiment [2] and in experiment [3] were at most 0.06 µg/mL, at most 0.06 µg/mL and 0.5 µg/mL (≈ 0.28 µM), respectively.

In the case of `CNC(CC(C)C)C(=O)NC1C(=O)NC(CC(N)=O)C(=O)NC2C(=O)NC3C(=O)NC(C(=O)NC(C(=O)O)c4cc(O)cc(O)c4-c4cc3ccc4O)C(OC3CC(C)(N)C(O)C(C)O3)c3ccc(c(Cl)c3)Oc3cc2cc(c3OC2OC(CO)C(O)C(O)C2OC2CC(C)(NCc3ccc(OC(F)(F)C(F)F)cc3)C(O)C(C)O2)Oc2ccc(cc2Cl)C1O` (stereo not drawn) [Compound 121, 4-[1,1,2,2-tetrafluoroethoxy]benzyl], the MIC in experiment [1] was at most 0.06 µg/mL; in experiment [2], at most 0.06 µg/mL; in experiment [3], 2 µg/mL (≈ 1.11 µM).

Take `CNC(CC(C)C)C(=O)NC1C(=O)NC(CC(N)=O)C(=O)NC2C(=O)NC3C(=O)NC(C(=O)NC(C(=O)O)c4cc(O)cc(O)c4-c4cc3ccc4O)C(OC3CC(C)(N)C(O)C(C)O3)c3ccc(c(Cl)c3)Oc3cc2cc(c3OC2OC(CO)C(O)C(O)C2OC2CC(C)(NCc3ccccc3O)C(O)C(C)O2)Oc2ccc(cc2Cl)C1O` (stereo not drawn) [Compound 169, 2-hydroxybenzyl]: the MIC is at most 0.06 µg/mL in experiment [1], at most 0.06 µg/mL in experiment [2] and 4 µg/mL (≈ 2.35 µM) in experiment [3].

Consider `CNC(CC(C)C)C(=O)NC1C(=O)NC(CC(N)=O)C(=O)NC2C(=O)NC3C(=O)NC(C(=O)NC(C(=O)O)c4cc(O)cc(O)c4-c4cc3ccc4O)C(OC3CC(C)(N)C(O)C(C)O3)c3ccc(c(Cl)c3)Oc3cc2cc(c3OC2OC(CO)C(O)C(O)C2OC2CC(C)(NCCc3ccc(OCc4ccccc4)cc3)C(O)C(C)O2)Oc2ccc(cc2Cl)C1O` (stereo not drawn) [Compound 68, 4-benzyloxyphenethyl], for which the MIC in experiment [1] was at most 0.06 µg/mL; in experiment [2], at most 0.06 µg/mL; in experiment [3], 4 µg/mL (≈ 2.22 µM).

Consider `CNC(CC(C)C)C(=O)NC1C(=O)NC(CC(N)=O)C(=O)NC2C(=O)NC3C(=O)NC(C(=O)NC(C(=O)O)c4cc(O)cc(O)c4-c4cc3ccc4O)C(OC3CC(C)(N)C(O)C(C)O3)c3ccc(c(Cl)c3)Oc3cc2cc(c3OC2OC(CO)C(O)C(O)C2OC2CC(C)(NCc3ccc(N4CCN(C)CC4)cc3)C(O)C(C)O2)Oc2ccc(cc2Cl)C1O` (stereo not drawn) [Compound 146, 4-[4-methylpiperazino]benzyl], for which the MIC was 0.5 µg/mL (≈ 0.281 µM) in experiment [1], 1 µg/mL (≈ 0.562 µM) in experiment [2] and 0.5 µg/mL (≈ 0.281 µM) in experiment [3].

`C=CCCCCNC1(C)CC(OC2C(Oc3c4cc5cc3Oc3ccc(cc3Cl)C(OC3CC(C)(N)C(O)C(C)O3)C3NC(=O)C(NC(=O)C5NC(=O)C(CC(N)=O)NC(=O)C(NC(=O)C(CC(C)C)NC)C(O)c5ccc(c(Cl)c5)O4)c4ccc(O)c(c4)-c4c(O)cc(O)cc4C(C(=O)O)NC3=O)OC(CO)C(O)C2O)OC(C)C1O` (stereo not drawn) [Compound 217, 5-hexenyl]: the minimal inhibitory concentration (MIC) in experiment [1] was at most 0.06 µg/mL; in experiment [2], at most 0.06 µg/mL; in experiment [3] it was 8 µg/mL (≈ 4.78 µM).

Turning to `CNC(CC(C)C)C(=O)NC1C(=O)NC(CC(N)=O)C(=O)NC2C(=O)NC3C(=O)NC(C(=O)NC(C(=O)O)c4cc(O)cc(O)c4-c4cc3ccc4O)C(OC3CC(C)(N)C(O)C(C)O3)c3ccc(c(Cl)c3)Oc3cc2cc(c3OC2OC(CO)C(O)C(O)C2OC2CC(C)(NCc3ccc(-c4ccc(OC)cc4)cc3)C(O)C(C)O2)Oc2ccc(cc2Cl)C1O` (stereo not drawn) [Compound 54, 4-[4-methoxyphenyl]benzyl], the minimal inhibitory concentration (MIC) in experiment [1] is at most 0.06 µg/mL; in experiment [2] it was 1 µg/mL (≈ 0.559 µM); in experiment [3], 0.5 µg/mL (≈ 0.28 µM).

For `CNC(CC(C)C)C(=O)NC1C(=O)NC(CC(N)=O)C(=O)NC2C(=O)NC3C(=O)NC(C(=O)NC(C(=O)O)c4cc(O)cc(O)c4-c4cc3ccc4O)C(OC3CC(C)(N)C(O)C(C)O3)c3ccc(cc3)Oc3cc2cc(c3OC2OC(CO)C(O)C(O)C2OC2CC(C)(NCc3ccc(Oc4ccccc4)cc3)C(O)C(C)O2)Oc2ccc(cc2)C1O` (stereo not drawn) [Compound 184, 4-phenoxybenzyl], the results for the MIC in experiment [1], in experiment [2] and in experiment [3] were 1 µg/mL (≈ 0.586 µM), 0.5 µg/mL (≈ 0.293 µM) and 4 µg/mL (≈ 2.34 µM), respectively.

For the origin of these results see US5843889A, “Glycopeptide antibiotic derivatives” (Eli Lilly and Company, priority 1997, dated 1998).
